Results published in BindingDB's records for doi:10.1021/acsmedchemlett.5b00147 (Therachem Research Medilab (India), 2015).

Assay: Antagonist activity against PAR2 in human HT29 cells assessed as inhibition of UTP-induced Ca2+ responses pre-incubated for 30 mins before UTP stimulation by FLIPR assay

IC50: 4.4 µM
SMILES: CCOC(=O)[C@H]1CCCN(C(=O)c2cn3nc(-c4ccc(F)cc4)cc(C(F)(F)F)c3n2)[C@@H]1C
